# Experiments:
# [1] = Influence of UV irradiation on fluorescence intensity of SAHA-fluorophore conjugates; assay type: physicochemical; conditions: UV irradiated 0-30 minutes; HEK293T cells expressing HDAC6-NANOLUC fusion
# Description: During development of the BRET approach described herein for estimating crosslinking efficiency, experiments were conducted to determine the influence of UV irradiation on the bioluminescent intensity of the energy donor NANOLUC, and the fluorescence intensity of three fluorophores that can be used as energy acceptors (FIGS. 12-15). The model system for these experiments (FIG. 13) was the interaction between HDAC6 fused to NANOLUC and SAHA (vorinostat), which binds to HDAC6 and was conjugated to one of three fluorophores NCT, TAMRA, and BODIPY576 (FIG. 12). In these experiments HEK293T cells transiently expressing HAD6-NANOLUC fusion were treated for 2 hours with serial dilution of SAHA-fluorophore conjugate, then UV irradiated for 0-30 minutes and subsequently treated with NANOGLO detection reagent. […] Thus, NANOLUC and NCT were chosen as a BRET donor and acceptor pair for the assays estimating photocrosslinking efficiency.
# STAT5 reporter = STAT5 reporter expression in K-562 cells; assay type: cell-based; conditions: Homo sapiens, K562; K-562 cells transiently expressing a STAT5 reporter, 24 hours; read-out: IC50, inhibited expression of a STAT5 reporter
# Description: Dasatinib is a broad kinase inhibitor targeting the BCR-ABL oncogenic pathway, thereby reducing the downstream activation of STAT5. K-562 cells transiently expressing a STAT5 reporter (2×10^5 cells/mL) were treated with serial dilution of dasatinib or a derivative having cleavable chloroalkane tag (+/−a PRG) for 24 hours and then tested for expression of the STAT5 reporter.
SMILES,Fluorescence intensity under UV irradiation [1],IC50 (STAT5 reporter)
CN(C)c1ccc2c(-c3cc(C(=O)NCc4ccc(NC(=O)CCCCCCC(=O)NO)cc4)ccc3C(=O)O)c3ccc(=[N+](C)C)cc-3oc2c1 [SAHA-TMR],decreased the fluorescence intensity,–
O=C(CCCCCCC(=O)Nc1ccc(CNC(=O)c2ccc(C(=O)O)c(C3=c4cc5c6c(c4Oc4c3cc3c7c4CCCN7CCCC3)CCC[N+]=6CCCC5)c2)cc1)NO [SAHA-NCT],not significantly affected,–
Cc1nc(Nc2ncc(C(=O)Nc3c(C)cccc3Cl)s2)cc(N2CCN(CCO)CC2)n1 [dasatinib],–,0.4 nM
O=C(CCCCCCC(=O)Nc1ccc(CNC(=O)CCc2ccc3n2[B-](F)(F)[N+]2=C(c4ccc[nH]4)C=CC2=C3)cc1)NO [SAHA-BODIPY576],decreased the fluorescence intensity,–
